Measured values taken from patent US5112811A, “SDK peptides and therapeutic compositions containing them” (Societe de Conseils de Recherches et d'Applications …, priority 1989, dated 1992).
Residues, ends and D or L forms follow the SMILES beside them.

Columns and labels:
[1] = test system: Jurkat T cells; experiment: Rosettes protocol: rosette formation between Jurkat T cells and sheep red blood cells; format: cell-based
Description: Wash three times the red blood cells (RBC) in RPMI 1640 or RBS or Hanks +antibiotic drugs. Centrifuge for 7 minutes at 3000 rpm.
Put the cells sap in suspension. Count. Bring to 2.10^8 RBC/ml in a solution of RPMI at 20 % of Foetal Calf Serum (FCS) (4 ml formerly adsorbed on 1 ml of RBC sap, 30 minutes on an ice-bath, then centrifuge for 7 minutes at 3000 rpm and recover in sterile conditions).
Take an aliquot of Jurkat T cells in culture. Make a viability with Trypan blue.
Then take the volume of cells required for practical work. Wash the cells three times in RPMI 1640 or PBS or Hanks +antibiotic drugs. Centrifuge for 7 minutes at 900 rpm.
Put the cells sap in suspension. Count. Bring to 2.10^6 Jurkat T cells/ml of solution of RPMI at 20 % of adsorbed FCS.
Inhibiting solution =SDK (2.10^-7 mole).
Peptides to be evaluated are dissolved in RPMI 1640 at the appropriate concentration.
Place, in the tube, 200 μl of the inhibiting solution +100 μl of Jurkat T cells […] in RMPI +FCS 20 %; leave 10 minutes on an ice-bath. Add […] in RPMI +FCS 20 %.
Centrifuge for 5 minutes at 500 rpm. Leave overnight at 4° C.
Set the microscope : ocular :×6 objective :×7
Put carefully back in suspension the cells by tapping. Let it rest for a while.
Add, in the tube, 30 μl of Toluidine blue 1 % (to dye the lymphocytes). Tap gently.
Read 3 Malassex hemocytometer per experimental point.

[2] = test system: B lymphocytes which secrete IgM immunoglobulines; experiment: Humoral response in mice to sheep red blood cells (hemolysis plaque technique, Jerne method); format: in vivo, mice of B6D2F1 strain; settings: 3 μg/kg IP; for Number of P.F.C./10^6 cells: read on day +4; for % stimulation of humoral response: versus saline
Description: 6-to-8 week old mice of B6D2F1 strain are sensitized, on day 0, with 0.2 ml of a sheep red blood cells suspension [10^8 cells ] in a saline solution of Hanks.
The Ser-Asp-Lys and the Pro-Ser-Asp-Lys-Pro peptides (3 μg/kg) were injected in solution physiological serum, by IP route, in 0.2 ml, at the appointed time.
On day +4, animals are killed and the number of B lymphocytes which secrete IgM immunoglobulines are counted by the hemolysis plaque technique (Jerne method).
8 mice / batch. 4 determinations / animal made test : 2 experiments / point.

[3] = test system: Human peripheral mononuclear cells (MNC) stimulated by 0.1% PHA; experiment: Stimulation of T lymphocytes proliferation ([3H]thymidine DNA synthesis in PHA-stimulated MNC); format: cell-based; settings: for DNA synthesis induced in MNC stimulated by 0.1% PHA: PBL with 0.1% PHA, 3 days; for % stimulation of DNA synthesis in MNC stimulated by 0.1% PHA: versus control (RPMI 1640)
Description: Dilute blood at 1/2 in PBS.
On 15 ml of Ficoll-Hypaque, put 35 ml of dilute blood.
Centrifuge 30 minutes at 1800 rpm, at room temperature.
Take the ring corresponding to mononuclear cells (MNC) back with Pasteur pipette.
Wash twice in PBS (centrifuge for 10 minutes at 1800 rpm).
Bring to 2.10^6 cells/ml with RPMI 1640 "complete" medium +10 % SVF.
PHA-M : Reconstitute a 5 ml bottle lyophylized with 5 ml of "complete" medium. Solution of 100 %. Dilute to obtain a 0.4 % solution.
SDK : Tube […] +4.35 ml "complete" medium. Solution 2.3 10^-4 M.
Then dilute successively 450 μl "medium" +50 μl of dilution.
In 96-well sterilized boxes NUNC :
50 μl of PHA 0.4 % (0.1 % final)
Incubate for 3 days at 37° C. in air/CO* atmosphere 95/5. During the last 24 hours, make a puls of [^3 H] Thymidine : 1 μci/well. Pick up the wells on filters and count with a counter.

| Compound | % INHIBITION of rosettes ([1]; peptide 10^-4 M) [%] | % ROSETTES ([1]; peptide 10^-4 M) [%] | % INHIBITION of rosettes ([1]; peptide 10^-5 M) [%] | % ROSETTES ([1]; peptide 10^-5 M) [%] | % INHIBITION of rosettes ([1]; peptide 10^-6 M) [%] | % ROSETTES ([1]; peptide 10^-6 M) [%] | % INHIBITION of rosettes ([1]; peptide 10^-7 M) [%] | % ROSETTES ([1]; peptide 10^-7 M) [%] | % INHIBITION of rosettes ([1]; peptide 10^-8 M) [%] | % ROSETTES ([1]; peptide 10^-8 M) [%] | % INHIBITION of rosettes ([1]; peptide 10^-9 M) [%] | % ROSETTES ([1]; peptide 10^-9 M) [%] | % ROSETTES ([1]; peptide 10^-10 M) [%] | Number of P.F.C./10^6 cells ([2]; injection at 0 h) [P.F.C./10^6 cells] | % stimulation of humoral response ([2]; injection at 0 h) | Number of P.F.C./10^6 cells ([2]; injection at +24 h) [P.F.C./10^6 cells] | Number of P.F.C./10^6 cells ([2]; injection at +48 h) [P.F.C./10^6 cells] | % stimulation of humoral response ([2]; injection at +48 h) | Number of P.F.C./10^6 cells ([2]; injection at +72 h) [P.F.C./10^6 cells] | Number of P.F.C./10^6 cells ([2]; injection at -24 h) [P.F.C./10^6 cells] | further results |
| --- | --- | --- | --- | --- | --- | --- | --- | --- | --- | --- | --- | --- | --- | --- | --- | --- | --- | --- | --- | --- | --- |
| NCCCC[C@H](NC(=O)[C@H](CC(=O)O)NC(=O)[C@@H](N)CO)C(=O)O [SDK, Ser-Asp-Lys] (H-Ser-Asp-Lys-OH) | -40 | 38 ± 3 | -28 | 45 ± 4 | -22 | 50 ± 2 | -22 | 49 ± 2 | -36 | 40 ± 2 | -32 | 43 ± 1 | 43 ± 3 | 903 ± 133 | +97% | 459 ± 103 | 673 ± 110 | +65% | 1073 ± 348 | 644 ± 170 | % INHIBITION of rosettes ([1]; peptide 10^-10 M): -32%; % INHIBITION of rosettes ([1]; peptide 10^-11 M): -36%; % ROSETTES ([1]; peptide 10^-11 M): 40 ± 1%; % INHIBITION of rosettes ([1]; peptide 10^-12 M): -30%; % ROSETTES ([1]; peptide 10^-12 M): 44 ± 3%; % INHIBITION of rosettes ([1]; peptide 10^-13 M): -19%; % ROSETTES ([1]; peptide 10^-13 M): 51 ± 7%; % INHIBITION of rosettes ([1]; peptide 10^-14 M): -14%; % ROSETTES ([1]; peptide 10^-14 M): 55 ± 2%; % ROSETTES ([1]; peptide 10^-15 M): 63 ± 4%; % stimulation of humoral response ([2]; injection at +72 h): +134%; % stimulation of humoral response ([2]; injection at -24 h): +45%; DNA synthesis induced in MNC stimulated by 0.1% PHA ([3]; peptide 3.10^-5 M): 56 ± 5 cpm × 10^3 /2.10^5 cells; % stimulation of DNA synthesis in MNC stimulated by 0.1% PHA ([3]; peptide 3.10^-5 M): +60%; DNA synthesis induced in MNC stimulated by 0.1% PHA ([3]; peptide 3.10^-10 M): 52 ± 5 cpm × 10^3 /2.10^5 cells; % stimulation of DNA synthesis in MNC stimulated by 0.1% PHA ([3]; peptide 3.10^-10 M): +30% |
| NCCCC[C@H](NC(=O)[C@H](CC(=O)O)NC(=O)[C@H](CO)NC(=O)[C@@H]1CCCN1)C(=O)N1CCC[C@H]1C(=O)O [PSDKP, Pro-Ser-Asp-Lys-Pro] (H-PSDKP-OH) | -37 | 37 ± 7 | -44 | 33 ± 3 | -54 | 27 ± 5 | -24 | 45 ± 6 | -19 | 48 ± 2 | -19 | 48 ± 4 | 52 ± 5 | 915 ± 140 | +99% | 475 ± 82 | 589 ± 101 | +45% | 543 ± 112 | 630 ± 142 | % stimulation of humoral response ([2]; injection at -24 h): +42%; DNA synthesis induced in MNC stimulated by 0.1% PHA ([3]; peptide 3.10^-5 M): 54 ± 4 cpm × 10^3 /2.10^5 cells; % stimulation of DNA synthesis in MNC stimulated by 0.1% PHA ([3]; peptide 3.10^-5 M): +42% |
